These results are taken from US11021470B2, “2-substituted quinazoline compounds comprising a substituted heterocyclic group and methods of use thereof” (Araxes Pharma LLC, priority 2015, dated 2021).

For one assay, the target named is T1, KRAS G12C 1-169, his-tagged protein, GDP-loaded (Homo sapiens, UniProt P01116, G12C).
T1 construct: KRAS G12C 1-169, his-tagged protein, GDP-loaded
Nature of the assay: KRAS G12C covalent binding (% modification) by mass spectrometry, ten or three minute incubation. The conditions noted are these: covalent binding to KRAS G12C after a ten minute incubation period. The procedure: Test compounds were prepared as 10 mM stock solutions in DMSO (Fisher cat #BP-231-100). KRAS G12C 1-169, his-tagged protein, GDP-loaded was diluted to […] in buffer (20 mM Hepes, 150 mM NaCl, 1 mM MgCl2). Compounds were tested for activity as follows:
Compounds were diluted to 50× final test concentration in DMSO in 96-well storage plates. Compound stock solutions were vortexed before use and observed carefully for any sign of precipitation. Dilutions were as follow: • For 100 μM final compound concentration, compounds were diluted to 5000 μM (5 μl 10 mM compound stock+5 μl DMSO and mixed well by pipetting. • For 30 μM final compound concentration, compounds were diluted to 1500 μM (3 μl 10 mM compound stock+17 μl DMSO) and mixed well by pipetting. • For 10 μM final compound concentration, compounds were diluted to 500 μM (2 μl 10 mM compound stock+38 μl DMSO) and mixed well by pipetting. 49 μl of the stock protein solution was added to each well of a 96-well PCR plate (Fisher cat #1423027). 1 μl of the diluted 50× compounds were added to appropriate wells in the PCR plate using 12-channel pipettor. Reactions were mixed carefully and thoroughly by pipetting up/down with a 200 μl multi-channel pipettor. […] 5 μl of 2% formic acid (Fisher cat #A117) in DI H2O was then added to each well followed by mixing with a pipette. The plate was then resealed with aluminum seal and stored on dry ice until analyzed as described below.
The above described assays were analyzed by mass spectrometry according to one of the following two procedures:
The MS instrument is set to positive polarity, 2 GHz resolution, and low mass (1700) mode and allowed to equilibrate for 30 minutes. The instrument is then calibrated, switched to acquisition mode and the appropriate method loaded.
After another 30 minute equilibration time, a blank batch (i.e., buffer) is run to ensure equipment is operating properly. The samples are thawed at 37° C. for 10 minutes, briefly centrifuged, and transfer to the bench top. Wells A1 and H12 are spiked with 1 μL 500 μM internal standard peptide, and the plates centrifuged at 2000×g for 5 minutes. The method is then run and masses of each individual well recorded.
The masses (for which integration data is desired) for each well are pasted into the platemap and exported from the analysis. Masses for the internal standards are exported as well. The data at 50 ppm is extracted for the +19 charge state, and identity of well A1 is assigned using the internal standard spike and integrated. Peak data is exported as a TOF list and the above steps are repeated individually, for the +20, 21, 22, 23, 24, and 25 charge states.
The masses and peak intensities of KRAS G12C protein species were measured using a Dionex RSLCnano system (Thermo Scientific) connected to a Q Exactive Plus mass spectrometer (Thermo Scientific).
[…] of sample was each loaded onto a Aeris™ 3.6 μm WIDEPORE C4 200 Å, LC Column 50×2.1 mm column maintained at 40° C. at a flow rate of 600 μl min^−1 with […] (0.1% formic acid in acetonitrile). The liquid chromatography conditions were 20% solvent B for 1 min, 20% to 60% solvent B for 1.5 min, 60% to 90% solvent for 0.5 min, 90% solvent B for 0.2 min, 90% to 20% solvent B for 0.2 min, and then equilibrated for 1.6 min before the following sample injection. The flow rate was maintained at 600 μl min^−1 throughout the sample analysis.
The mass spectrometer was operated in profile mode at a resolution of 17500, 5 microscans, using 50 msec max injection time and an AGC target of 1e6, and a full mass range from 800-1850 m/z was recorded. The HCD trapping gas was optimized for maximum sensitivity for intact proteins. The ionization method was electrospray ionization, which used a spray voltage of 4 kV, sheath gas flow set to 50 au, auxiliary gas flow set to 10 au and sweep gas flow set to 1 au. […]
`C=CC(=O)N1C[C@H](C)N(c2nc(N3CC(N(C)C)C3)nc3c(F)c(-c4c(O)cccc4F)c(Cl)cc23)C[C@H]1C` (atropisomer, axis not shown) [Compound 53, 1-((2R,5S)-4-((R)-6-chloro-2-(3-(dimethylamino)azetidin-1-yl)-8-fluoro-7-(2-fluoro-6-hydroxyphenyl)quinazolin-4-yl)-2,5-dimethylpiperazin-1-yl)prop-2-en-1-one]: the Binding % result is reported as “++ (++ indicates binding activity from 50 to 90%)”. Still for that read-out and setting: the result for `C=CC(=O)N1CCN(c2nc(N3CC(N(C)C)C3)nc3c(F)c(-c4c(O)cccc4F)c(Cl)cc23)C[C@H]1C` (atropisomer, axis not shown) [Compound 61, 1-((R)-4-((R)-6-chloro-2-(3-(dimethylamino)azetidin-1-yl)-8-fluoro-7-(2-fluoro-6-hydroxyphenyl)quinazolin-4-yl)-2-methylpiperazin-1-yl)prop-2-en-1-one] reads “++ (++ indicates binding activity from 50 to 90%)”. Regarding `C=CC(=O)N1C[C@H](C)N(c2nc(N3CC(N(C)C)C3)nc3c(F)c(-c4c(C)ccc5cn[nH]c45)c(Cl)cc23)C[C@H]1C` (atropisomer, axis not shown) [Compound 73, 1-((2R,5S)-4-((S)-6-chloro-2-(3-(dimethylamino)azetidin-1-yl)-8-fluoro-7-(6-methyl-1H-indazol-7-yl)quinazolin-4-yl)-2,5-dimethylpiperazin-1-yl)prop-2-en-1-one], the Binding % result is given as “++ (++ indicates binding activity from 50 to 90%)”. Consider `C=CC(=O)N1C[C@H](C)N(c2nc(OCCN(CC)CC)nc3c(F)c(-c4c(O)cccc4F)c(Cl)cc23)C[C@H]1C` (atropisomer, axis not shown) [Compound 74, 1-((2R,5S)-4-((R)-6-chloro-2-(2-(diethylamino)ethoxy)-8-fluoro-7-(2-fluoro-6-hydroxyphenyl)quinazolin-4-yl)-2,5-dimethylpiperazin-1-yl)prop-2-en-1-one], for which the Binding % result is reported as “++ (++ indicates binding activity from 50 to 90%)”. Still for that read-out and setting: the result for `C=CC(=O)N1C[C@H](C)N(c2nc(OCCN3CC(F)(F)C3)nc3c(F)c(-c4c(O)cccc4F)c(Cl)cc23)C[C@H]1C` (atropisomer, axis not shown) [Compound 84, 1-((2R,5S)-4-((S)-6-chloro-2-(2-(3,3-difluoroazetidin-1-yl)ethoxy)-8-fluoro-7-(2-fluoro-6-hydroxyphenyl)quinazolin-4-yl)-2,5-dimethylpiperazin-1-yl)prop-2-en-1-one] reads “+++ (+++ indicates binding activity greater than 90%)”.

The assay is the same for the next values; noted with them: covalent binding to KRAS G12C, % modification after a three minute incubation period.
“1-((2R,5S)-4-(6-chloro-2-(2-(diethylamino)ethoxy)-8-fluoro-7-((S)-6-methyl-1H-indazol-7-yl)quinazolin-4-yl)-2,5-dimethylpiperazin-1-yl)prop-2-en-1-one [Compound 157]”: the Binding % result is “+ (+ indicates binding activity greater than 0% and up to 50%)”.

For `C=CC(=O)N1C[C@H](C)N(c2nc(OCCN3CC(F)(F)C3)nc3c(F)c(-c4c(O)cccc4F)c(Cl)cc23)C[C@H]1C` (atropisomer, axis not shown) [Compound 90, 1-((2R,5S)-4-(6-chloro-2-(2-(3,3-difluoroazetidin-1-yl)ethoxy)-8-fluoro-7-((S)-2-fluoro-6-hydroxyphenyl)quinazolin-4-yl)-2,5-dimethylpiperazin-1-yl)prop-2-en-1-one], the Binding % result is reported as “++ (++ indicates binding activity from 50 to 90%)”. Same read-out and setting: the result for `C=CC(=O)N1C[C@H](C)N(c2nc(N3CC(N(C)C)C3)nc3c(F)c(-c4c(C)ccc5[nH]ncc45)c(Cl)cc23)C[C@H]1C` (atropisomer, axis not shown) [Compound 130, 1-((2R,5S)-4-(6-chloro-2-(3-(dimethylamino)azetidin-1-yl)-8-fluoro-7-((R)-5-methyl-1H-indazol-4-yl)quinazolin-4-yl)-2,5-dimethylpiperazin-1-yl)prop-2-en-1-one] reads “+++ (+++ indicates binding activity greater than 90%)”; that for `[2H]C([2H])([2H])N(C1CN(c2nc(N3C[C@@H](C)N(C(=O)C=C)C[C@@H]3C)c3cc(Cl)c(-c4c(O)cccc4F)c(F)c3n2)C1)C([2H])([2H])[2H]` (atropisomer, axis not shown) [Compound 207, 1-((2R,5S)-4-(2-(3-(bis(tridueteromethyl)amino)azetidin-1-yl)-6-chloro-8-fluoro-7-((S)-2-fluoro-6-hydroxyphenyl)quinazolin-4-yl)-2,5-dimethylpiperazin-1-yl)prop-2-en-1-one], “+++ (+++ indicates binding activity greater than 90%)”; that for `[2H]C([2H])([2H])N(C1CN(c2nc(N3C[C@@H](C)N(C(=O)C=C)C[C@@H]3C)c3cc(Cl)c(-c4c(O)cccc4F)c(F)c3n2)C1)C([2H])([2H])[2H]` (atropisomer, axis not shown) [Compound 212, 1-((2R,5S)-4-(2-(3-(bis(tridueteromethyl)amino)azetidin-1-yl)-6-chloro-8-fluoro-7-((R)-2-fluoro-6-hydroxyphenyl)quinazolin-4-yl)-2,5-dimethylpiperazin-1-yl)prop-2-en-1-one], “+ (+ indicates binding activity greater than 0% and up to 50%)”. As for `[2H]C([2H])([2H])N(C1CN(c2nc(N3C[C@@H](C)N(C(=O)C=C)C[C@@H]3C)c3cc(Cl)c(-c4c(C)ccc5[nH]ncc45)c(F)c3n2)C1)C([2H])([2H])[2H]` (atropisomer, axis not shown) [Compound 226, 1-((2R,5S)-4-(6-chloro-2-(3-(bis(tridueteromethyl)amino)azetidin-1-yl)-8-fluoro-7-((R)-5-methyl-1H-indazol-4-yl)quinazolin-4-yl)-2,5-dimethylpiperazin-1-yl)prop-2-en-1-one], the Binding % result is reported as “+++ (+++ indicates binding activity greater than 90%)”. With `C=CC(=O)N1C[C@H](C)N(c2nc(OCCn3ccnc3)nc3c(F)c(-c4c(O)cccc4F)c(Cl)cc23)C[C@H]1C` (atropisomer, axis not shown) [Compound 249, 1-((2R,5S)-4-(2-(2-(1H-imidazol-1-yl)ethoxy)-6-chloro-8-fluoro-7-((S)-2-fluoro-6-hydroxyphenyl)quinazolin-4-yl)-2,5-dimethylpiperazin-1-yl)prop-2-en-1-one], the Binding % result is recorded as “+++ (+++ indicates binding activity greater than 90%)”. As for `C=CC(=O)N1C[C@H](C)N(c2nc(N3CC(N(C)C)C3)nc3c(F)c(-c4cc(O)cc5ccccc45)c(C(F)(F)F)cc23)C[C@H]1C` (atropisomer, axis not shown) [Compound 255, 1-((2R,5S)-4-(2-(3-(dimethylamino)azetidin-1-yl)-8-fluoro-7-((R)-3-hydroxynaphthalen-1-yl)-6-(trifluoromethyl)quinazolin-4-yl)-2,5-dimethylpiperazin-1-yl)prop-2-en-1-one], the Binding % result is “+++ (+++ indicates binding activity greater than 90%)”. `C=CC(=O)N1C[C@H](C)N(c2nc(N3CC(N(C)C)C3)nc3c(F)c(-c4cc(O)cc5ccccc45)c(C(F)(F)F)cc23)C[C@H]1C` (atropisomer, axis not shown) [Compound 256, 1-((2R,5S)-4-(2-(3-(dimethylamino)azetidin-1-yl)-8-fluoro-7-((S)-3-hydroxynaphthalen-1-yl)-6-(trifluoromethyl)quinazolin-4-yl)-2,5-dimethylpiperazin-1-yl)prop-2-en-1-one]: the Binding % result is “+ (+ indicates binding activity greater than 0% and up to 50%)”.
